Tests used:
Type in all cases: ADME
[1] = The drug is tested on Roseburia intestinalis strain: DSM14610 for biotransformation under anaerobic condition. The drug concentrations were measured over 6 timepoints collected between 0 and 12 hours of incubation by liquid-chromatography-coupled mass spectrometry (LC–MS); set-up: dose 5 uM, timepoint 0, 1.5, 3, 6, 9, 12 hours; conditions: 5 µM
[2] = The drug is tested on the gut metagenome community of P-02 with ENA study accession number: PRJEB31790 for biotransformation under anaerobic condition. The drug concentrations were measured over 7 timepoints collected between 0 and 12 hours of incubation by liquid-chromatography-coupled mass spectrometry (LC–MS); set-up: dose 5 uM, timepoint 0, 0.75, 1.5, 3, 6, 9, 12 hours; conditions: 5 µM
[3] = The drug is tested on the gut metagenome community of T-02 with ENA study accession number: PRJEB31790 for biotransformation under anaerobic condition. The drug concentrations were measured over 7 timepoints collected between 0 and 12 hours of incubation by liquid-chromatography-coupled mass spectrometry (LC–MS); set-up: dose 5 uM, timepoint 0, 0.75, 1.5, 3, 6, 9, 12 hours; conditions: 5 µM
[4] = The drug is tested on Streptococcus anginosus strain: DSM20563 for biotransformation under microaerobic condition. The drug concentrations were measured over 6 timepoints collected between 0 and 12 hours of incubation by liquid-chromatography-coupled mass spectrometry (LC–MS); set-up: dose 5 uM, timepoint 0, 1.5, 3, 6, 9, 12 hours; conditions: 5 µM
[5] = The drug is tested on Blautia hansenii strain: DSM20583 for biotransformation under anaerobic condition. The drug concentrations were measured over 6 timepoints collected between 0 and 12 hours of incubation by liquid-chromatography-coupled mass spectrometry (LC–MS); set-up: dose 5 uM, timepoint 0, 1.5, 3, 6, 9, 12 hours; conditions: 5 µM
[6] = The drug is tested on Alloscardovia omnicolens strain: DSM21503 for biotransformation under anaerobic condition. The drug concentrations were measured over 6 timepoints collected between 0 and 12 hours of incubation by liquid-chromatography-coupled mass spectrometry (LC–MS); set-up: dose 5 uM, timepoint 0, 1.5, 3, 6, 9, 12 hours; conditions: 5 µM
[7] = The drug is tested on Streptococcus mitis strain: DSM12643 for biotransformation under anaerobic condition. The drug concentrations were measured over 6 timepoints collected between 0 and 12 hours of incubation by liquid-chromatography-coupled mass spectrometry (LC–MS); set-up: dose 5 uM, timepoint 0, 1.5, 3, 6, 9, 12 hours; conditions: 5 µM
[8] = The drug is tested on Akkermansia muciniphila strain: DSM22959 for biotransformation under anaerobic condition. The drug concentrations were measured over 6 timepoints collected between 0 and 12 hours of incubation by liquid-chromatography-coupled mass spectrometry (LC–MS); set-up: dose 5 uM, timepoint 0, 1.5, 3, 6, 9, 12 hours; conditions: 5 µM
[9] = The drug is tested on Bacteroides thetaiotaomicron strain: DSM2079 for biotransformation under anaerobic condition. The drug concentrations were measured over 6 timepoints collected between 0 and 12 hours of incubation by liquid-chromatography-coupled mass spectrometry (LC–MS); set-up: dose 5 uM, timepoint 0, 1.5, 3, 6, 9, 12 hours; conditions: 5 µM
[10] = The drug is tested on the gut metagenome community of P-02 with ENA study accession number: PRJEB31790 for biotransformation under microaerobic condition. The drug concentrations were measured over 7 timepoints collected between 0 and 12 hours of incubation by liquid-chromatography-coupled mass spectrometry (LC–MS); set-up: dose 5 uM, timepoint 0, 0.75, 1.5, 3, 6, 9, 12 hours; conditions: 5 µM
[11] = The drug is tested on Lactobacillus reuteri strain: DSM20016 for biotransformation under microaerobic condition. The drug concentrations were measured over 6 timepoints collected between 0 and 12 hours of incubation by liquid-chromatography-coupled mass spectrometry (LC–MS); set-up: dose 5 uM, timepoint 0, 1.5, 3, 6, 9, 12 hours; conditions: limosilactobacillus reuteri, 5 µM
[12] = The drug is tested on Lactobacillus ruminis strain: ATCC25644 for biotransformation under microaerobic condition. The drug concentrations were measured over 6 timepoints collected between 0 and 12 hours of incubation by liquid-chromatography-coupled mass spectrometry (LC–MS); set-up: dose 5 uM, timepoint 0, 1.5, 3, 6, 9, 12 hours; conditions: ligilactobacillus ruminis, 5 µM
[13] = The drug is tested on the gut metagenome community of A-06 with ENA study accession number: PRJEB31790 for biotransformation under microaerobic condition. The drug concentrations were measured over 7 timepoints collected between 0 and 12 hours of incubation by liquid-chromatography-coupled mass spectrometry (LC–MS); set-up: dose 5 uM, timepoint 0, 0.75, 1.5, 3, 6, 9, 12 hours; conditions: 5 µM
[14] = The drug is tested on Lactobacillus gasseri strain: DSM20243 for biotransformation under anaerobic condition. The drug concentrations were measured over 6 timepoints collected between 0 and 12 hours of incubation by liquid-chromatography-coupled mass spectrometry (LC–MS); set-up: dose 5 uM, timepoint 0, 1.5, 3, 6, 9, 12 hours; conditions: 5 µM
[15] = The drug is tested on Faecalibacterium prausnitzii strain: DSM17677 for biotransformation under anaerobic condition. The drug concentrations were measured over 6 timepoints collected between 0 and 12 hours of incubation by liquid-chromatography-coupled mass spectrometry (LC–MS); set-up: dose 5 uM, timepoint 0, 1.5, 3, 6, 9, 12 hours; conditions: faecalibacterium duncaniae, 5 µM
[16] = The drug is tested on Eubacterium eligens strain: DSM3376 for biotransformation under anaerobic condition. The drug concentrations were measured over 6 timepoints collected between 0 and 12 hours of incubation by liquid-chromatography-coupled mass spectrometry (LC–MS); set-up: dose 5 uM, timepoint 0, 1.5, 3, 6, 9, 12 hours; conditions: lachnospira eligens, 5 µM
[17] = The drug is tested on Eubacterium hallii strain: DSM3353 for biotransformation under anaerobic condition. The drug concentrations were measured over 6 timepoints collected between 0 and 12 hours of incubation by liquid-chromatography-coupled mass spectrometry (LC–MS); set-up: dose 5 uM, timepoint 0, 1.5, 3, 6, 9, 12 hours; conditions: anaerobutyricum hallii, 5 µM
[18] = The drug is tested on Clostridium scindens strain: DSM5676 for biotransformation under anaerobic condition. The drug concentrations were measured over 6 timepoints collected between 0 and 12 hours of incubation by liquid-chromatography-coupled mass spectrometry (LC–MS); set-up: dose 5 uM, timepoint 0, 1.5, 3, 6, 9, 12 hours; conditions: 5 µM
[19] = The drug is tested on the gut metagenome community of A-06 with ENA study accession number: PRJEB31790 for biotransformation under anaerobic condition. The drug concentrations were measured over 7 timepoints collected between 0 and 12 hours of incubation by liquid-chromatography-coupled mass spectrometry (LC–MS); set-up: dose 5 uM, timepoint 0, 0.75, 1.5, 3, 6, 9, 12 hours; conditions: 5 µM
[20] = The drug is tested on Enterococcus faecalis strain: ATCC29212 for biotransformation under anaerobic condition. The drug concentrations were measured over 6 timepoints collected between 0 and 12 hours of incubation by liquid-chromatography-coupled mass spectrometry (LC–MS); set-up: dose 5 uM, timepoint 0, 1.5, 3, 6, 9, 12 hours; conditions: 5 µM
[21] = The drug is tested on the gut metagenome community of P-04 with ENA study accession number: PRJEB31790 for biotransformation under anaerobic condition. The drug concentrations were measured over 7 timepoints collected between 0 and 12 hours of incubation by liquid-chromatography-coupled mass spectrometry (LC–MS); set-up: dose 5 uM, timepoint 0, 0.75, 1.5, 3, 6, 9, 12 hours; conditions: 5 µM
[22] = The drug is tested on Capnocytophaga ochracea strain: DSM7271 for biotransformation under microaerobic condition. The drug concentrations were measured over 6 timepoints collected between 0 and 12 hours of incubation by liquid-chromatography-coupled mass spectrometry (LC–MS); set-up: dose 5 uM, timepoint 0, 1.5, 3, 6, 9, 12 hours; conditions: 5 µM
[23] = The drug is tested on Actinomyces naeslundi strain: DSM43013 for biotransformation under microaerobic condition. The drug concentrations were measured over 6 timepoints collected between 0 and 12 hours of incubation by liquid-chromatography-coupled mass spectrometry (LC–MS); set-up: dose 5 uM, timepoint 0, 1.5, 3, 6, 9, 12 hours; conditions: actinomyces naeslundii, 5 µM
[24] = The drug is tested on the gut metagenome community of T-05 with ENA study accession number: PRJEB31790 for biotransformation under microaerobic condition. The drug concentrations were measured over 7 timepoints collected between 0 and 12 hours of incubation by liquid-chromatography-coupled mass spectrometry (LC–MS); set-up: dose 5 uM, timepoint 0, 0.75, 1.5, 3, 6, 9, 12 hours; conditions: 5 µM
[25] = The drug is tested on the gut metagenome community of T-03 with ENA study accession number: PRJEB31790 for biotransformation under microaerobic condition. The drug concentrations were measured over 7 timepoints collected between 0 and 12 hours of incubation by liquid-chromatography-coupled mass spectrometry (LC–MS); set-up: dose 5 uM, timepoint 0, 0.75, 1.5, 3, 6, 9, 12 hours; conditions: 5 µM
[26] = The drug is tested on Bacteroides xylanisolvens strain: HM 722 for biotransformation under anaerobic condition. The drug concentrations were measured over 6 timepoints collected between 0 and 12 hours of incubation by liquid-chromatography-coupled mass spectrometry (LC–MS); set-up: dose 5 uM, timepoint 0, 1.5, 3, 6, 9, 12 hours; conditions: 5 µM

Row | Bacterial Biotransformation [1] | Bacterial Biotransformation [2] | Bacterial Biotransformation [3] | Bacterial Biotransformation [4] | Bacterial Biotransformation [5] | Bacterial Biotransformation [6] | Bacterial Biotransformation [7] | Bacterial Biotransformation [8] | Bacterial Biotransformation [9] | Bacterial Biotransformation [10] | Bacterial Biotransformation [11] | Bacterial Biotransformation [12] | Bacterial Biotransformation [13] | Bacterial Biotransformation [14] | Bacterial Biotransformation [15] | Bacterial Biotransformation [16] | Bacterial Biotransformation [17] | Bacterial Biotransformation [18] | Bacterial Biotransformation [19] | Bacterial Biotransformation [20] | other results | SMILES
1 | Compound metabolized | Compound metabolized | Compound metabolized | Compound NOT metabolized | Compound NOT metabolized | Compound NOT metabolized | Compound NOT metabolized | Compound NOT metabolized | Compound NOT metabolized | Compound NOT metabolized | Compound NOT metabolized | Compound NOT metabolized | Compound metabolized | Compound NOT metabolized | Compound NOT metabolized | Compound NOT metabolized | Compound metabolized | Compound NOT metabolized | Compound metabolized | Compound NOT metabolized | Bacterial Biotransformation [21]: Compound NOT metabolized; Bacterial Biotransformation [22]: Compound NOT metabolized; Bacterial Biotransformation [23]: Compound NOT metabolized; Bacterial Biotransformation [24]: Compound metabolized; Bacterial Biotransformation [25]: Compound NOT metabolized; Bacterial Biotransformation [26]: Compound NOT metabolized | CN(Cc1cnc2nc(N)nc(N)c2n1)c1ccc(C(=O)N[C@@H](CCC(=O)O)C(=O)O)cc1 [METHOTREXATE]
2 | Compound NOT metabolized | Compound metabolized | Compound metabolized | Compound NOT metabolized | Compound NOT metabolized | Compound NOT metabolized | Compound NOT metabolized | Compound NOT metabolized | Compound NOT metabolized | Compound metabolized | Compound NOT metabolized | Compound NOT metabolized | Compound metabolized | Compound NOT metabolized | Compound NOT metabolized | Compound NOT metabolized | Compound NOT metabolized | Compound metabolized | Compound metabolized | Compound NOT metabolized | Bacterial Biotransformation [21]: Compound metabolized; Bacterial Biotransformation [22]: Compound NOT metabolized; Bacterial Biotransformation [23]: Compound NOT metabolized; Bacterial Biotransformation [24]: Compound metabolized; Bacterial Biotransformation [25]: Compound NOT metabolized; Bacterial Biotransformation [26]: Compound NOT metabolized | C[C@H]1C[C@@H]2[C@H]([C@@H](O)C[C@@]3(C)[C@H]2CC[C@]3(O)C(=O)CO)[C@@]2(C)C=CC(=O)C=C12 [METHYLPREDNISOLONE]

Source: ChEMBL document CHEMBL5724806, “Unraveling interindividual differences and functional consequences of gut microbial metabolism of immunosuppressants” (2024)
